Results reported in US8357717B2, “Spiro group-containing amide compounds having bradykinin 1 receptor (B1R) activity” (Gruenenthal GmbH, priority 2009, dated 2013).

These compounds were tested against T1, B1R receptor of the rat (rB1R) (Rattus norvegicus, UniProt P97583) (assay: FLIPR Ca2+ functional study on bradykinin receptor 1, rB1R cells (CHO K1)). Details: 10 μM test substance; CHO K1 cells with rat B1R; agonist Des-Arg9-bradykinin at EC80; read-out: B1R antagonism, rat [10 μM] % inhibition.
T1 construct: expressed in transfected cells; host or cells: CHO K1 cells, stably transfected
T1 sequence (P97583 1-337): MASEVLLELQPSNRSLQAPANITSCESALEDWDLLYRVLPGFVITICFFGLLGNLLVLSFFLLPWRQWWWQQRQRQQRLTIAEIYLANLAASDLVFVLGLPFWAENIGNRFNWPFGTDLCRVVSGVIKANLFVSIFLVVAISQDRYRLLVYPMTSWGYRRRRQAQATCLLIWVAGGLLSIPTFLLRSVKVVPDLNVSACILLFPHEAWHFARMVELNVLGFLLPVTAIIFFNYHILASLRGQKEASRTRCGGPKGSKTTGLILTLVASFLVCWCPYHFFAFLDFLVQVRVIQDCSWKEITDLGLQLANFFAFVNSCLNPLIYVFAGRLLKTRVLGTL
Format: cell-based
Method: (§1) The agonistic or antagonistic activity of substances can be quantified on the bradykinin receptor 1 (B1R) of the species human and rat using ectopically expressing cell lines (CHO K1 cells) and with the aid of a Ca^2+-sensitive dye (Fluo-4) using a fluorescent imaging plate reader (FLIPR). The indication in % activation is based on the Ca^2+ signal after addition of Lys-Des-Arg^9-bradykinin (0.5 nM) or Des-Arg^9-bradykinin (100 nM). Antagonists lead to suppression of the Ca^2+ influx after the addition of the agonist. % Inhibition compared with the maximum achievable inhibition is indicated.
(§2) The agonistic or antagonistic activity of substances can be determined on the bradykinin receptor 1 (B1R) of the species human and rat using the following assay. According to this assay, the Ca^2+ influx through the channel is quantified with the aid of a Ca^2+-sensitive dye (Fluo-4 type, Molecular Probes Europe BV, Leiden, Netherlands) using a Fluorescent Imaging Plate Reader (FLIPR, Molecular Devices, Sunnyvale, USA).
(§3) Chinese hamster ovary cells (CHO K1 cells) which have been stably transfected with the human B1R gene (hB1R cells) or with the B1R gene of the rat (rB1R cells) are used. For functional studies, the cells are plated out on black 96-well plates having a clear base (BD Biosciences, Heidelberg, Germany or Greiner, Frickenhausen, Germany) in a density of 20,000-35,000 cells/well. The cells are left overnight at 37° C. and with 5% CO2 in culture medium (hB1R cells: Nutrient Mixture Ham's F12, Gibco Invitrogen GmbH, Karlsruhe, Germany or DMEM, Sigma-Aldrich, Taufkirchen, Germany; rB1R cells: D-MEM/F12, Gibco Invitrogen GmbH, Karlsruhe, Germany), with 10 vol. % FBS (fetal bovine serum, Gibco Invitrogen GmbH, Karlsruhe, Germany or PAN Biotech GmbH, Aidenbach, Germany). On the following day, the cells are loaded for 60 minutes at 37° C. with 2.13 μM Fluo-4 (Molecular Probes Europe BV, Leiden, Netherlands) in HBSS buffer (Hank's buffered saline solution, Gibco Invitrogen GmbH, Karlsruhe, Germany) […] (Sigma-Aldrich, Taufkirchen, Germany) and 10 mM HEPES (Sigma-Aldrich, Taufkirchen, Germany). The plates are then washed twice with HBSS buffer, and HBSS buffer additionally containing 0.1% BSA (bovine serum albumin; Sigma-Aldrich, Taufkirchen, Germany), 5.6 mM glucose and 0.05% gelatin (Merck KGaA, Darmstadt, Germany) is added to the plates. After incubation for a further 20 minutes at room temperature, the plates are inserted into the FLIPR for Ca^2+ measurement. Alternatively, washing is carried out with buffer A (15 mM HEPES, 80 mM NaCl, 5 mM KCl, 1.2 mM CaCl2, 0.7 mM MgSO4, 2 g/l glucose, 2.5 mM probenecid) followed by loading with buffer A with added 2.5 μM Fluo-4 and 0.025% Pluronic F127 (Sigma-Aldrich, Taufkirchen, Germany). The cells are then washed twice with buffer A and incubated for 30 minutes at room temperature with buffer A additionally containing 0.05% BSA and 0.05% gelatin and are then inserted into the FLIPR for Ca^2+ measurement. The Ca^2+-dependent fluorescence is measured before and after the addition of substances (λex=488 nm, λem=540 nm). Quantification is carried out by measuring the highest fluorescence intensity (FC, fluorescence counts) over time.
(§4) The FLIPR protocol consists of two substance additions. Test substances (10 μM) are first pipetted onto the cells and the Ca^2+ influx is compared with the control (hB1R: Lys-Des-Arg^9-bradykinin >=50 nM; rB1R: Des-Arg^9-bradykinin 10 μM). This gives the activation in %, based on the Ca^2+ signal after addition of Lys-Des-Arg^9-bradykinin (>=50 nM) or Des-Arg^9-bradykinin (10 μM). After 10-20 minutes' incubation, Lys-Des-Arg^9-bradykinin (hB1R) or Des-Arg^9-bradykinin (rB1R) is applied in the concentration of the EC80, and the influx of Ca^2+ is likewise determined. Antagonists lead to suppression of the Ca^2+ influx. The % inhibition compared with the maximum achievable inhibition is calculated. […]

| SMILES | inhibition at 10 µM |
| --- | --- |
| COc1cc(C)c(S(=O)(=O)N2CCc3ccc(C(=O)N4CCC5(CC4)CCN(c4ccncc4)CC5)cc3C2)c(C)c1 [Compound G-04, (2-(4-Methoxy-2,6-dimethylphenylsulfonyl)-1,2,3,4-tetrahydroisoquinolin-7-yl)(9-(pyridin-4-yl)-3,9-diazaspiro[5.5]undecan-3-yl)methanone] | 99% |
| COc1cc(C)c(S(=O)(=O)N2CCCc3ccc(CC(=O)N4CCC5(CC4)CCN(c4ccncc4)C5)cc32)c(C)c1 [Compound G-09, 2-(1-(4-Methoxy-2,6-dimethylphenylsulfonyl)-1,2,3,4-tetrahydroquinolin-7-yl)-1-(2-(pyridin-4-yl)-2,8-diazaspiro[4.5]decan-8-yl)ethanone] | 96% |
| COc1cc(C)c(S(=O)(=O)N2CCc3ccc(C(=O)N4CCC5(CC4)CCN(Cc4ccc(F)cc4)C5=O)cc32)c(C)c1 [G_CC-006, 2-(4-Fluorobenzyl)-8-(1-(4-methoxy-2,6-dimethylphenylsulfonyl)indoline-6-carbonyl)-2,8-diazaspiro[4.5]decan-1-one] | 71% |
| COc1cc(C)c(S(=O)(=O)N2CCc3ccc(C(=O)N4CCC5(CCN(Cc6ccccc6)C5)C4)cc32)c(C)c1 (stereo not shown) [G_CC-007, (7-Benzyl-2,7-diazaspiro[4.4]nonan-2-yl)(1-(4-methoxy-2,6-dimethylphenylsulfonyl)indoline-6-yl)methanone] | 59% |
| COc1cc(C)c(S(=O)(=O)N2CCc3ccc(C(=O)N4CCC5(CC4)CCN(c4ccncc4)CC5)cc32)c(C)c1 [G_CC-008, (1-(4-Methoxy-2,6-dimethylphenylsulfonyl)indolin-6-yl)(9-(pyridin-4-yl)-3,9-diazaspiro[5.5]undecan-3-yl)methanone] | 100% |
| O=C(c1ccc2c(c1)N(C(=O)c1ccccc1Cl)CC2)N1CCC2(CC1)CCN(c1ccncc1)CC2 [G_CC-009, (1-(2-Chlorobenzoyl)indolin-6-yl)(9-(pyridin-4-yl)-3,9-diazaspiro[5.5]undecan-3-yl)methanone] | 78% |
| O=C(c1ccc2c(c1)CN(C(=O)c1ccccc1Cl)C2)N1CCC2(CC1)CCN(Cc1ccc(F)cc1)C2=O [G_CC-018, 8-(2-(2-Chlorobenzoyl)isoindoline-5-carbonyl)-2-(4-fluorobenzyl)-2,8-diazaspiro[4.5]decan-1-one] | 51% |
| COc1cc(C)c(S(=O)(=O)N2CCCc3ccc(C(=O)N4CCC5(CC4)C(=O)N(C)CC5c4ccc(F)cc4)cc32)c(C)c1 (stereo not shown) [G_CC-025, 4-(4-Fluorophenyl)-8-(1-(4-methoxy-2,6-dimethylphenylsulfonyl)-1,2,3,4-tetrahydroquinoline-7-carbonyl)-2-methyl-2,8-diazaspiro[4.5]decan-1-one] | 51% |
| COc1cc(C)c(S(=O)(=O)N2CCCc3ccc(C(=O)N4CCC5(CC4)CCN(Cc4ccccc4)C5=O)cc32)c(C)c1 [G_CC-026, 2-Benzyl-8-(1-(4-methoxy-2,6-dimethylphenylsulfonyl)-1,2,3,4-tetrahydroquinoline-7-carbonyl)-2,8-diazaspiro[4.5]decan-1-one] | 58% |
| COc1cc(C)c(S(=O)(=O)N2CCCc3ccc(C(=O)N4CCC5(CCN(Cc6ccccc6)C5)C4)cc32)c(C)c1 (stereo not shown) [G_CC-027, (7-Benzyl-2,7-diazaspiro[4.4]nonan-2-yl)(1-(4-methoxy-2,6-dimethylphenylsulfonyl)-1,2,3,4-tetrahydroquinolin-7-yl)methanone] | 58% |
| COc1cc(C)c(S(=O)(=O)N2CCc3ccc(C(=O)N4CCC5(CC4)CCN(Cc4ccc(F)cc4)C5=O)cc3C2)c(C)c1 [G_CC-039, 2-(4-Fluorobenzyl)-8-(2-(4-methoxy-2,6-dimethylphenylsulfonyl)-1,2,3,4-tetrahydroisoquinoline-7-carbonyl)-2,8-diazaspiro[4.5]decan-1-one] | 71% |
| COc1cc(C)c(S(=O)(=O)N2CCc3ccc(C(=O)N4CCC5(CC4)CCN(Cc4ccccc4)C5=O)cc3C2)c(C)c1 [G_CC-040, 2-Benzyl-8-(2-(4-methoxy-2,6-dimethylphenylsulfonyl)-1,2,3,4-tetrahydroisoquinoline-7-carbonyl)-2,8-diazaspiro[4.5]decan-1-one] | 70% |
| COc1cc(C)c(S(=O)(=O)N2CCc3ccc(C(=O)N4CCC5(CCN(Cc6ccccc6)C5)C4)cc3C2)c(C)c1 (stereo not shown) [G_CC-041, (7-Benzyl-2,7-diazaspiro[4.4]nonan-2-yl)(2-(4-methoxy-2,6-dimethylphenylsulfonyl)-1,2,3,4-tetrahydroisoquinolin-7-yl)methanone] | 64% |
| COc1cc(C)c(S(=O)(=O)N2CCc3ccc(C(=O)N4CCC5(CC4)C(=O)NCN5c4ccccc4)cc3C2)c(C)c1 [G_CC-043, 8-(2-(4-Methoxy-2,6-dimethylphenylsulfonyl)-1,2,3,4-tetrahydroisoquinoline-7-carbonyl)-1-phenyl-1,3,8-triazaspiro[4.5]decan-4-one] | 74% |
| O=C(c1ccc2c(c1)CN(C(=O)c1ccccc1Cl)CC2)N1CCC2(CC1)CCN(c1ccncc1)CC2 [G_CC-045, (2-(2-Chlorobenzoyl)-1,2,3,4-tetrahydroisoquinolin-7-yl)(9-(pyridin-4-yl)-3,9-diazaspiro[5.5]undecan-3-yl)methanone] | 92% |
| COc1cc(C)c(S(=O)(=O)N2CCCc3ccc(CC(=O)N4CCC5(CC4)CCN(Cc4ccccc4)C5=O)cc32)c(C)c1 [G_CC-053, 2-Benzyl-8-(2-(1-(4-methoxy-2,6-dimethylphenylsulfonyl)-1,2,3,4-tetrahydroquinolin-7-yl)acetyl)-2,8-diazaspiro[4.5]decan-1-one] | 84% |
| COc1cc(C)c(S(=O)(=O)N2CCCc3ccc(CC(=O)N4CCC5(CCN(Cc6ccccc6)C5)C4)cc32)c(C)c1 (stereo not shown) [G_CC-054, 1-(7-Benzyl-2,7-diazaspiro[4.4]nonan-2-yl)-2-(1-(4-methoxy-2,6-dimethylphenylsulfonyl)-1,2,3,4-tetrahydroquinolin-7-yl)ethanone] | 71% |

These compounds were tested against T2, human B1R receptor (hB1R) (Homo sapiens, UniProt P46663) (assay: FLIPR Ca2+ functional study on bradykinin receptor 1, hB1R cells (CHO K1)). Details: CHO-K1, 10 μM test substance; CHO K1 cells with human B1R; agonist Lys-Des-Arg9-bradykinin at EC80; read-out: B1R antagonism, human [10 μM] % inhibition.
T2 construct: expressed in transfected cells; host or cells: CHO K1 cells, stably transfected
T2 sequence (P46663 1-353): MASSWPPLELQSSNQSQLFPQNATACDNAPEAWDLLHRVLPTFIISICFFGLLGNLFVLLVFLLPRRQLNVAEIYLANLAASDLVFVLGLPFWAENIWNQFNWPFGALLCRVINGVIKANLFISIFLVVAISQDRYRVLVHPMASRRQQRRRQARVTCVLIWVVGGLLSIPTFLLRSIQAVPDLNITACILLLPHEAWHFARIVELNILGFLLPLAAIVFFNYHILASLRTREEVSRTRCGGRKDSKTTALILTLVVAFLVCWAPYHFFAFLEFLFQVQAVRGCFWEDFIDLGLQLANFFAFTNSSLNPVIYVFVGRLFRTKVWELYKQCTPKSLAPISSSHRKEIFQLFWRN
Format: cell-based
Method: as §1, §2, §3, §4

| SMILES | inhibition at 10 µM |
| --- | --- |
| COc1cc(C)c(S(=O)(=O)N2CCc3ccc(C(=O)N4CCC5(CC4)CCN(c4ccncc4)CC5)cc3C2)c(C)c1 [Compound G-04, (2-(4-Methoxy-2,6-dimethylphenylsulfonyl)-1,2,3,4-tetrahydroisoquinolin-7-yl)(9-(pyridin-4-yl)-3,9-diazaspiro[5.5]undecan-3-yl)methanone] | 97% |
| COc1cc(C)c(S(=O)(=O)N2CCCc3ccc(CC(=O)N4CCC5(CC4)CCN(c4ccncc4)C5)cc32)c(C)c1 [Compound G-09, 2-(1-(4-Methoxy-2,6-dimethylphenylsulfonyl)-1,2,3,4-tetrahydroquinolin-7-yl)-1-(2-(pyridin-4-yl)-2,8-diazaspiro[4.5]decan-8-yl)ethanone] | 96% |
